Where “and” joins values, the source holds several entries; their conditions need not be identical. Equal entries are not always repeated. Entries after “also recorded” stand apart in the source; their conditions may differ.
Assays:
[1] = Absorption of LuT2BET in 5% mannitol; type: physicochemical; conditions: 732 nm
Method: LuT2BET: The synthesis and chemical analysis of lutetium texaphyrin (LuT2BET, texaphyrin A2 of Table 1 where M is lutetium) was provided in U.S. Pat. Nos. 5,252,720 and 5,457,183 and in PCT publication WO 95/10307. LuT2BET was dissolved in 5% mannitol at a 2 mM concentration. LuT2BET absorbs strongly in the far-red region of the electromagnetic spectrum, having a molar extinction coefficient of 23,000 M^-1 cm^-1 in this solution at 732 nm, the wavelength used for photoirradiation.

B16F10 melanoma = assay: PDT response (tumor regrowth and survival) to LuT2BET and photoirradiation in melanoma-bearing mice; type: in vivo, C57 mice
Method: (§1) Melanoma Cells: B16F10 melanotic melanoma murine cells were obtained from the University of California, San Francisco Cell Culture Facility. These cells are highly pigmented and metastatic in vivo. Cells were grown in Iscove's Modified Dulbeccos' Medium (Gibco, Grand Island, N.Y.) supplemented with 10% fetal bovine serum (JRH Biosciences, Woodland, Calif.) and penicillin/streptomycin (Sigma, St. Louis, Mo.).
(§2) Animals and Tumor Model: Inbred C57BL/6N female mice, (C57 mice) seven to eight weeks of age, were obtained from Simonsen Laboratories Inc. (Gilroy, Calif.). The right flanks of the mice were shaved and depiled the day prior to tumor inoculation. B16F10 cells (5×10^5 cells in 0.05 mL PBS) were injected subcutaneously into the right hind flanks. Tumor size, i.e., length (l), width (w), and height (h), was measured 3 times a week with a vernier caliper. Tumor volumes were calculated using the formula for a hemiellipsoid (Rockwell and Kallman, 1972): […]
Statistical analysis: Values are expressed as mean±SD. Values were compared using the unpaired Student's t-test. In the longevity analysis, Kaplan-Meier survival curves and log rank analysis for statistical significance were used. Statistical significance was assumed if P<0.05.
The present example provides results of a study wherein melanoma-bearing mice were administered LuT2BET and photoirradiated. […] PDT response was dependent upon drug dose, irradiation exposure and administration time.
PDT Protocol: C57 mice, bearing B16F10 melanoma as described in Example 1, were used for PDT experiments when the tumors reached surface diameters of between 4-6 mm and a depth of 2.5-3 mm. […] A 400 μm diameter fiberoptic cable coupled the laser to a microlens which produced uniform light intensity in the treatment field. Light fluences ranged between 150 and 600 J/cm^2, and the power density was set at 150 mW/cm^2 as measured with a power meter (Scientech, Boulder, Colo.). The mice were restrained with laboratory tape during photoirradiation.

melanoma = type: in vivo, human; conditions: 0.5 μmol/kg i.v., 150 J/cm^2
Method: A patient with recurrent melanoma received a single dose of LuT2BET (0.5 μmol/kg; 2 mM in 5% mannitol/water; (a human equivalent of 10% of the mouse LD50)), administered intravenously, followed three hours later by photoirradiation by laser (732 nm light, 150 J/cm^2 at a power density of 75 mW/cm^2 using a LAMBDA PLUS® laser, Coherent, Palo Alto, Calif.). Four fields and a total of ten individual lesions were treated.

[2] = Biodistribution of LuT2BET in B16 melanoma-bearing mice (fluorescence of tissue extracts and plasma); type: in vivo, C57 mice
Method: The present example provides results from a study of the biodistribution of lutetium texaphyrin in melanoma-bearing mice. The biodistribution of LuT2BET was analyzed in C57 mice bearing B16 melanoma at 3 h, 5 h, and 24 h after an intravenous administration of 10 or 20 μmol/kg.
as §1, §2
Biodistribution studies were performed on tumors having surface diameters of between about 5.5-7 mm and a depth of 4-6 mm.
Tissue Extraction Procedure: LuT2BET was administered via tail-vein injection at 10 or 20 μmol/kg. Tissues and plasma were analyzed at 3, 5 or 24 h post administration of the photosensitizer. Blood was collected in tubes containing 5 mg of solid EDTA and erythrocytes were removed by centrifugation. Plasma samples (125 μL) were mixed with 10 mM TRITON X-100® and analyzed for texaphyrin content by fluorescence. […] Samples were then analyzed for lutetium texaphyrin content by fluorescence (excitation=450 nm, emission=700-800 nm). […] Sensitizer accumulation is expressed as μg drug/g tissue (wet weight) or per mL plasma.
Statistical analysis: Values are expressed as mean±SD. […]

[3] = parameters: species or system C57 mice; conditions: mouse, in vivo
Source text: Tumor Temperature Measurements: Tumor temperature during laser irradiation was monitored with a 33 gauge hypodermic thermocouple probe (Omega Engineering, Stamford, Conn.) placed percutaneously at the base of the tumor.

mammary carcinoma SMT-F = assay: Radiolabeled [14C]-LuT2BET uptake in SMT-F bearing mice; type: in vivo; conditions: 8.64 μmol/kg; for drug uptake (tumor): radiolabeled
Method: A dose of 8.64 μmol/kg LuT2BET produced drug uptake values of 5.1 μg/g, 4.7 μg/g, and 2.8 μg/g at 3 h, 5 h, and 24 h after injection, yielding tumor:muscle ratios of 8.45:1, 10:1 and 7:1, respectively.

B16 murine melanoma = B16 murine melanoma model; cited from earlier work
[4] = 10 μmol/kg, 300 J/cm^2, 5 h, n = 6
[5] = 10 μmol/kg, 500 J/cm^2, 5 h, n = 11
[6] = 20 μmol/kg, 150 J/cm^2, 24 h, n = 7
[7] = 20 μmol/kg, 300 J/cm^2, 24 h, n = 7

## CC(=O)[O-].CC(=O)[O-].CCc1c(CC)c2cc3nc(cnc4cc(OCCOCCOCCOC)c(OCCOCCOCCOC)cc4ncc4nc(cc1[n-]2)C(CCCO)=C4C)C(C)=C3CCCO.O.[Lu+3] [LuT2BET]
[1]
  molar extinction coefficient: 23,000 M^-1 cm^-1
B16F10 melanoma; 10 μmol/kg, 150 J/cm^2, 3 h, n = 3
  MST (median survival time following PDT): 23 days
B16F10 melanoma; 10 μmol/kg, 150 J/cm^2, 3 h, n = 12
  Regrowth (time to reach ten times the original tumor volume): 15.0 ± 3.38 days
B16F10 melanoma; 10 μmol/kg, 300 J/cm^2, 5 h
  inhibition of tumor regrowth, in words: no detectable inhibition of tumor regrowth was seen
B16F10 melanoma; [4]
  MST (median survival time following PDT): 17 days
  Regrowth (time to reach ten times the original tumor volume): 8.5 ± 3.0 days and 8.5 days
B16F10 melanoma; 10 μmol/kg, 400, 500 and 600 J/cm^2, 5 h
  PDT effect, in words: significantly increased the PDT effect
B16F10 melanoma; 10 μmol/kg, 400 J/cm^2, 5 h, n = 7
  Regrowth (time to reach ten times the original tumor volume): 11.6 ± 2.1 days
B16F10 melanoma; 10 μmol/kg, 400 J/cm^2, 5 h, n = 8
  MST (median survival time following PDT): 18.5 days
B16F10 melanoma; [5]
  MST (median survival time following PDT): 23 days
  Regrowth (time to reach ten times the original tumor volume): 13.2 ± 3.5 days
B16F10 melanoma; 10 μmol/kg, 600 J/cm^2, 5 h, n = 5, P<0.0001
  Regrowth (time to reach ten times the original tumor volume): 15.6 ± 3.6 days and 15.6 days
B16F10 melanoma; 10 μmol/kg, 600 J/cm^2, 5 h, n = 6
  MST (median survival time following PDT): 28 days
B16F10 melanoma; 10 μmol/kg, at least about 500 J/cm^2
  survival time, in words: A significant increase in survival time
B16F10 melanoma; 10 μmol/kg, no light, n = 5
  Regrowth (time to reach ten times the original tumor volume): 7.8 ± 0.8 days
B16F10 melanoma; 10 μmol/kg, no light, n = 6
  MST (median survival time following PDT): 17.5 days
B16F10 melanoma; 20 μmol/kg, 150 J/cm^2, 5 h, n = 8
  Regrowth (time to reach ten times the original tumor volume): 10.6 ± 2.9 days
B16F10 melanoma; 20 μmol/kg, 150 J/cm^2, 5 h, n = 8, P=0.011
  MST (median survival time following PDT): 26 days
B16F10 melanoma; 20 μmol/kg, 150 J/cm^2, 24 h
  tumor regrowth, in words: did not yield any significant change in tumor regrowth
B16F10 melanoma; [6]
  MST (median survival time following PDT): 19 days
  Regrowth (time to reach ten times the original tumor volume): 6.7 ± 0.8 days
B16F10 melanoma; 20 μmol/kg, 150 and 300 J/cm^2, 5 h
  survival time, in words: A significant increase in survival time
B16F10 melanoma; 20 μmol/kg, 300 J/cm^2, 5 h, n = 13
  Regrowth (time to reach ten times the original tumor volume): 15.3 ± 2.6 days and 15.3 days
B16F10 melanoma; 20 μmol/kg, 300 J/cm^2, 5 h, n = 13, P=0.0002
  MST (median survival time following PDT): 27 days
B16F10 melanoma; [7]
  MST (median survival time following PDT): 20 days
  Regrowth (time to reach ten times the original tumor volume): 9.6 ± 2.1 days and 9.6 days
B16F10 melanoma; 20 μmol/kg, irradiated 5 h after administration, P<0.001
  tumor response, in words: A significant response
B16F10 melanoma; 20 μmol/kg, no light, n = 5
  MST (median survival time following PDT): 15 days
  Regrowth (time to reach ten times the original tumor volume): 8.2 ± 2.3 days
B16F10 melanoma; 20 μmol/kg, sensitizer alone
  tumor regrowth, in words: No significant difference in tumor regrowth
B16F10 melanoma; LuT2BET alone, 10 and 20 μmol/kg, vs controls
  survival time, in words: no apparent difference between light alone, LuT2BET alone, and the controls
B16F10 melanoma; PDT, 10 or 20 μmol/kg
  longevity / survival time overall, in words: increased longevity of the treated animals; also recorded: in some cases the longevity of the animals was doubled; also recorded: significantly increased the survival time of the melanoma-bearing mice
  retardation of tumor growth overall, in words: significant retardation of growth of the tumor; also recorded: efficacious in the retardation of the highly pigmented B16 melanoma in C57 mice
melanoma; several days post-therapy
  response of remaining lesions: the remaining lesions showed no change
  response of several larger lesions: several of the larger lesions had decreased in size
  response of several smaller lesions: several of the smaller lesions had disappeared
melanoma; two months post-therapy
  response of lesions at two months: continued to show improvement
[2]; 10 or 20 μmol/kg i.v., biodistribution study
  toxicity: no toxicity was observed
[2]; mouse, in vivo
  tumor levels compared with plasma, muscle and skin: higher than plasma, muscle and skin at all three time points
  uptake into B16 melanoma compared to SMT-F: increased uptake of lutetium texaphyrin into B16 melanoma was observed
[3]
  increase in tumor temperature: No measurable increase in tumor temperature
Mammary carcinoma SMT-F; 3 h
  tumor:muscle ratio: 8.45 :1
  drug uptake (tumor): 5.1 µg/g
Mammary carcinoma SMT-F; 5 h
  tumor:muscle ratio: 10 :1
  drug uptake (tumor): 4.7 µg/g
Mammary carcinoma SMT-F; 24 h
  tumor:muscle ratio: 7 :1
  drug uptake (tumor): 2.8 µg/g

## silicon(IV)-naphthalocyanine
B16 murine melanoma
  tumor retardation not associated with thermal effects: modest
  tumor selectivity: no tumor selectivity
